Measurements published in PubChem BioAssay AID2253 (Southern Research Specialized Biocontainment Screening …, 2010).

Tested on: THP-1 viability, CellTiter-Glo luminescence, 72 h
Assay: THP-1 cell cytotoxicity, dose response, cytotoxicity control for Salmonella PhoP regulon inhibitors, S. typhimurium screen hits (AID 2253)

Row | SMILES | EC50 [µM]
1 | O=c1[nH]c(CSc2ncc(-c3ccc(F)cc3)n2Cc2ccco2)nc2ccccc12 | 47
2 | Cc1cccc(N2CCc3c2nc2ccccc2c3N)c1 | 47.6
3 | c1ccc2c(c1)CCN(c1ncnc3c1[nH]c1ccccc13)C2 | 10.7
4 | C[C@H]1O[C@@H](n2cc(F)c(=O)[nH]c2=O)[C@H](O)[C@@H]1O | 43.8
5 | Cc1ccc(C(C[N+](=O)[O-])c2c(C)cc3ccccn23)cc1 (stereo not drawn) | 15.4
6 | O=C(NNc1c2ccccc2nc2ccccc12)c1ccccc1O | 28.3
7 | O=C1c2ccccc2NC(c2ccc(-c3cccc([N+](=O)[O-])c3)o2)N1O (stereo not drawn) | 6.61
8 | CCCCOc1ccc(S(=O)(=O)NNC(=O)C2Cc3c(ccc4ccccc34)O2)cc1 (stereo not drawn) | 42.6
9 | COc1ccc(OCCSc2nnc3sc4ccccc4n23)cc1 | 44.1
10 | CCCC(=O)NC(c1ccccc1)c1ccc2cccnc2c1O (stereo not drawn) | 0.59
11 | CCN(CC)c1ccc(/C=N/Nc2nc3ccccc3[nH]2)c(O)c1 | 2.7
12 | O=C(/C=C/c1ccccc1Cl)c1ccccc(=O)c1O | 12.6
13 | Cc1ccc(C(=O)Sc2cccccc2=O)cc1 | 2.64
14 | c1ccc2c(c1)Sc1ccccc1N2CC1CN2CCC1CC2 (stereo not drawn) | 7.93
15 | O=C(NCCNc1ccc([N+](=O)[O-])cc1C(F)(F)F)c1ccc(F)cc1 | 43.7
16 | COc1ccccc1CNCC(O)Cn1c2ccccc2c2ccccc21 (stereo not drawn) | 8.21
17 | COc1c(N2CCN(C(=S)NCc3ccccc3)C(C)C2)c(F)cc2c(=O)c(C(=O)O)cn(C3CC3)c12 (stereo not drawn) | 15.4
18 | CC(C)c1ccc(NC(=O)N(CCc2nc3ccccc3[nH]2)C2CCCC2)cc1 | 43.1
19 | C=CCc1cccc(C2Nc3ccccc3C(=O)N2O)c1O (stereo not drawn) | 43.1
20 | CCOC(=O)c1sc(NC(=O)Nc2ccc(Cl)cc2)cc1C | 10.3
21 | O=C(NCCNc1ccc([N+](=O)[O-])cc1C(F)(F)F)c1cccc(F)c1 | 47.5
22 | Cc1cc(/C=N/n2cnnc2)c(C)n1-c1ccc(OCc2ccc(F)cc2)cc1 | 12.7

Row | SMILES | EC50 [µM]
23 | OC(c1cc(-c2ccc(C(F)(F)F)cc2)nc(C(F)(F)F)c1)C1CCCCN1 (stereo not drawn) | 6.15
24 | S=C(NN=C1C2CC3CC(C2)CC1C3)Nc1ccccc1 | 30.4
25 | Cn1c(NCc2cc(Br)ccc2O)nc2ccccc21 | 37.5
26 | O=C(N/N=C/c1cn(-c2ccccc2)nc1-c1ccc(F)cc1)c1ccc2c(c1)OCO2 | 35
27 | CCOC(=S)SCC(=O)Nc1nc(-c2ccccc2)cs1 | 4.91
28 | Nc1nonc1C(=O)N/N=C/c1cc(Br)ccc1O | 3.12
29 | Oc1ccccc1Nc1nc(NCc2ccco2)c2ccccc2n1 | 13.2
30 | O=[N+]([O-])c1ccc(O)c(/C=N/Nc2ccccn2)c1 | 0.42
31 | N=c1n(CCO)c2ccccc2n1Cc1ccc(Cl)cc1 | 41.1
32 | COc1cccc(-n2c(SCc3cc(=O)oc4cc(O)c(O)cc34)nc3ccccc3c2=O)c1 | 15.1
33 | Cc1ccc(C[n+]2cc(-c3ccc(Cl)cc3)n3c2CCC3)cc1 | 12
34 | COc1ccccc1Nc1nc(NCc2ccco2)c2ccccc2n1 | 16.2
35 | Oc1c(CN2CCOCC2)cc(COCc2ccccc2)c2cccnc12 | 3.1
36 | O=C(Nc1ccc(S(=O)(=O)N2CCCC2)cc1)c1ccc(CN2CCc3ccccc3C2)cc1 | 26.5
37 | Cc1cccc(Nc2cc(C)c3c(O)cccc3n2)c1C | 8.98
38 | O=c1c(Cl)c(Cl)cnn1Cc1ccccc1Cl | 2.95
39 | O=C(Cc1c[nH]c2ccccc12)N/N=C/c1ccccc1O | 16.2
40 | CCOC(=O)Cc1csc(NC(=O)NC2(C(F)(F)F)Oc3cc(Cl)c(Cl)cc3O2)n1 | 26
41 | COC(=O)c1c(NC(=O)c2ccc([N+](=O)[O-])o2)sc2c1CCN(C(C)C)C2 | 1.2
42 | CCCCCCCCn1c2c(c(=N)c3ccccc31)CCC2 | 0.98
43 | Oc1c(CN2CCc3ccccc3C2)cc(Cl)c2cccnc12 | 8.71
